Measured values taken from patent US20250213560A1, “NITROGEN-CONTAINING HETEROCYCLIC COMPOUNDS HAVING PHENYL GROUP AND USES THEREOF” (BNH RESEARCH CO., LTD., priority 2022, published 2025).

Columns and labels:
[1] = tested on: 293T cells; test: Cytotoxicity test (CCK-8 cell viability) in 293T cells; type: cell-based, human; conditions: 293T cell line
Protocol: Human undifferentiated neuroblastoma cell line SH-SY5Y and human embryonic kidney cell line (HEK)-293T were purchased from Korean Cell Line Bank (Korea) and Takara (Japan), respectively. Cells were grown in HyClone Minimal Essential Medium (MEM) and Dulbecco's Modified Eagle Medium (DMEM), respectively, supplemented with 10% (v/v) fetal bovine serum (FBS), penicillin (100 U/mL), and streptomycin ([…]). Cells were maintained in a humidified atmosphere of 95% air and 5% CO2 at 37° C. Cells were passaged 10 times at maximum. Cells were dissociated using 0.05% trypsin-EDTA solution and the cells were seeded in new culture dishes for maintenance.
To examine the cytotoxicity of compounds described herein in human cell lines, SH-SY5Y and 293T cells were used. Approximately 8,000 cells (for 293T) and 15,000 cells (for SH-SY5Y) were plated per well of a 96-well plate (SPL Life Sciences Co., Ltd., Pocheon, Korea). After incubating at 37° C. for 24 hours in a humidified atmosphere containing 5% CO2, the culture medium was replaced by a series of concentrations of test compounds diluted in the corresponding culture medium.
The time of co-incubation was 24 hours and six replicates were made for each measurement. Finally, 10 μL of CCK-8 reagent (Dojindo Laboratories, Rockville, MD) was added to each well, and after incubation at 37° C. for 3 minutes, the OD at 450 nm was measured using a multifunction microplate reader (Tecan Infinite M200 Pro). These measurements were compared to that of a control and expressed as a percentage of the control to calculate cell viability. The IC50 value was calculated using SPSS software. To do this, the absorbance of the blank wells with only growth medium is subtracted from the values or the wells with cells. The readout value of background (vehicle) was set as a 100% viability, and then the percent viability for each test solution was calculated.
The data was presented as the mean value and standard error of the mean (S.E.M.). Statistical analysis was performed with the one-way ANOVA with Tukey's post hoc test (GraphPad Prism 5 software package, version 5.02, GraphPad Software Inc. USA). Significance was accepted at p<0.05.
The cytotoxicity of the compound was evaluated by treating cells with BnH12003 and measuring cell viability.
By treating cells with various BnH12 series compounds and measuring cell viability using the experimental procedure described in Example 2, the cytotoxicity of the compounds was evaluated.

[2] = tested on: GluN2B; test: GluN2B protein expression by Western blot in primary cortical neuron cells; type: cell-based, mouse
Protocol: Meanwhile, primary cortical neuron cells were isolated from cerebral cortices of 18-day-old mouse fetuses, incubated in prep media (composition (mM): NaCl 107.5, NaH2PO4 1, NaHCO333.5, glucose 11, HEPS 1%, penicillin-streptomycin 1%) containing 0.25% trypsin and DNasel for 30 minutes, dissociated into single cells, and seeded. Primary cortical neuron cells were grown in Neurobasal medium supplemented with 1% (v/v) B27, 1% penicillin (100 U/mL), streptomycin ([…]), and 1% Glutamax. Cells were maintained in a humidified atmosphere of 95% air and 5% CO2 at 37° C. Drug efficacy was evaluated after culturing primary cortical neuron cells for 14 days.
The amount of GluN2B reacted with the compound of the present disclosure was measured using Western blot. The fetal cerebral cortex was extracted from mice at 17 days of gestation, dissociated into single cells, cultured for 13 days, and treated with BnH drugs for 24 hours. The drug-treated cells were subjected to protein lysate preparation using RIPA protein lysis buffer containing protease and phosphatase inhibitors. The protein concentration was determined using a BCA protein assay kit (Pierce Biotechnology) using bovine serum albumin as a standard. Equal amounts of protein (20 μg per lane) were separated by electrophoresis on SDS-polyacrylamide gels at 90 V for 2 hours, then transferred from the SDS-polyacrylamide gel to PVDF membrane at 100 V for 1 hour. Then, primary reaction with GluN2B antibody (ab65783, Abcam) was performed at 4° C. for 1 day, washed three times at 10-minutes intervals with 1×PBT, and secondary reaction was performed with anti-mouse antibody (sc-2357, Santa Cruz) for 1 hour, followed by washing three times at 10-minutes intervals with 1×PBT. Western blotting was performed as described above to confirm GluN2B protein expression. Subsequently, each blot was re-probed using anti-β-actin antibody (sc-47778, Santa Cruz). Housekeeping protein B-actin was detected as a normalization control.
The increase and decrease of BnH12 series were confirmed by setting the vehicle to 1 (N for each group was 3 or more).
Using the experimental procedure described in Example 3, it was determined whether various BnH12 series compounds increase GluN2B expression, and the results are shown in Table 5. These in vitro experimental results are expressed as relative values to the group (vehicle) that was not treated with the compound, with the effect of the group set to 1.

**Q.** What does the source list for C[C@H]1CC[C@@H](C(=O)O)CN1C(=O)Cc1cccc(-c2cncnc2)c1 [BnH12095, (3R,6S)-6-methyl-1-(2-(3-(pyrimidin-5-yl)phenyl)acetyl) piperidine-3-carboxylic acid]?
**A.** Cell viability test results (CCK) 10 uM ([1]; 10 uM): 80%<; Cell viability test results (CCK) 100 uM ([1]; 100 uM): 75%<; GluN2B expression effect (in words) ([2]; compared to vehicle / other compounds, Table 5): excellent effects; Western blot results Mean (GluN2B expression) ([2]; relative value, vehicle set to 1, primary cortical neurons treated for 24 hours): 2.871
